Results on 31 compounds are retold here after US9617271B2, “Triazolo compounds” (Hoffmann-La Roche Inc., priority 2012, dated 2017).

The experiment addresses human PDE10A (Homo sapiens (Human), UniProt Q9Y233). The experiment in a line: human PDE10A full length assay ([3H]-cGMP SPA). The experiment is classed as biochemical. As to conditions: human PDE10A full length enzyme, 50 nM cGMP + 50 nM [3H]-cGMP, 20 minutes at room temperature; read-out: PDE10A inhibition IC50. The procedure:
The human PDE10A full length assay was performed in 96-well micro titer plates. The reaction mixture of 50 μl contained 20 mM HEPES pH=7.5/10 mM MgCl2/0.05 mg/ml BSA (Sigma cat. #A-7906), 50 nM cGMP (Sigma, cat. #G6129) and 50 nM [3H]-cGMP (GE Healthcare, cat. #TRK392 S.A. 13.2 Ci/mmol), 3.75 ng/well PDE10A enzyme (Enzo Life Science, Lausen, Switzerland cat #SE-534) with or without a specific test compound. A range of concentrations of the potential inhibitor was used to generate data for calculating the concentration of inhibitor resulting in 50% of the effect (e.g. IC50, the concentration of the competitor inhibiting PDE10A activity by 50%). Non-specific activity was tested without the enzyme. The reaction was initiated by the addition of the substrate solution (cGMP and [3H]-cGMP) and allowed to progress for 20 minutes at room temperature. The reaction was terminated by adding 25 μl of YSi-SPA scintillation beads (GE Healthcare, cat. #RPNQ0150) in 18 mM zinc sulphate solution (stop reagent). After 1 h under shaking, the plate was centrifuged one minute at 170 g to allow beads to settle. Afterwards, radioactive counts were measured on a Perkin Elmer TopCount Scintillation plate reader.

Chain of human PDE10A (Q9Y233 other isoform, or with tags, fused parts or gaps): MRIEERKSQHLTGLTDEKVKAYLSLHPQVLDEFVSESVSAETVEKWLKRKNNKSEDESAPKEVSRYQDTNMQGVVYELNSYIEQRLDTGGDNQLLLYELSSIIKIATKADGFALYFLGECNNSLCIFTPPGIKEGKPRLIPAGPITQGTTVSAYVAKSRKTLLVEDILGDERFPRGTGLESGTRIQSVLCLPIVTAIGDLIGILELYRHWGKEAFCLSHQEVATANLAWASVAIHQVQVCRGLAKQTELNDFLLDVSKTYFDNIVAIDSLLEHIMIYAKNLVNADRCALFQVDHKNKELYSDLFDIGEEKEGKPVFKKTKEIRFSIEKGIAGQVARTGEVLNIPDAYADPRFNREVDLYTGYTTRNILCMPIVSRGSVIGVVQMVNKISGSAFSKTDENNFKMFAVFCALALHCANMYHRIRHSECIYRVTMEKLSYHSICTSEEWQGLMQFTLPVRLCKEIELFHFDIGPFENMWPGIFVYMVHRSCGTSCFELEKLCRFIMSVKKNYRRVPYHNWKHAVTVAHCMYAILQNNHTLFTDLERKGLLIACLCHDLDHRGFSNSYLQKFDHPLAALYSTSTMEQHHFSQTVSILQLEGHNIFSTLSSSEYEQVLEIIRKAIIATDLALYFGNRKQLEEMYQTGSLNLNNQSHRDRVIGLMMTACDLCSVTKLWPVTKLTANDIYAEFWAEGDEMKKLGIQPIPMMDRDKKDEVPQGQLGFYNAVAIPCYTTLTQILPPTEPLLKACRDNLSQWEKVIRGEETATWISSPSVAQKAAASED

For `Cc1c(C(F)(F)F)nc2ccc(CCc3nc(N4CCCC4)nn3C)nn12` [Example 1, 3-Methyl-6-(2-(1-methyl-3-(pyrrolidin-1-yl)-1H-1,2,4-triazol-5-yl)ethyl)-2-(trifluoro-methyl)imidazo[1,2-b]pyridazine], the IC50 (commonly the point on the concentration scale where inhibition reaches its midpoint) turned out to be 12 nM.
For the compound `Cc1nc2ccc(CCc3nc(N4CCCC4)nn3C)nn2c1C` [Example 2, 2,3-Dimethyl-6-(2-(1-methyl-3-(pyrrolidin-1-yl)-1H-1,2,4-triazol-5-yl)ethyl)-imidazo[1,2-b]pyridazine], the concentration for half-maximal inhibition (IC50) was determined as 11 nM.
For `Cc1c(C#N)nc2ccc(/C=C/c3nc(N4CCCC4)nn3C)nn12` [Example 3, 3-Methyl-6-[(E)-2-(2-methyl-5-pyrrolidin-1-yl-2H-[1,2,4]triazol-3-yl)vinyl]-imidazo[1,2-b]pyridazine-2-carbonitrile], the half-maximal inhibitory concentration (IC50) came out at 5 nM.
With `Cc1c(C(F)(F)F)nc2ccc(C#Cc3nc(N4CCCC4)n(C)n3)nn12` [Example 4, 3-Methyl-6-((1-methyl-5-(pyrrolidin-1-yl)-1H-1,2,4-triazol-3-yl)ethynyl)-2-(trifluoromethyl)imidazo[1,2-b]pyridazine], the IC50 is 4 nM.
In the case of `Cc1c(C#N)nc2ccc(CCc3nc(N4CCCC4)nn3C)nn12` [Example 5, 3-Methyl-6-[2-(2-methyl-5-pyrrolidin-1-yl-2H-[1,2,4]triazol-3-yl)-ethyl]-imidazo[1,2-b]pyridazine-2-carbonitrile] it was 21 nM; in that of `Cc1c(C(F)(F)F)nc2ccc(CCc3nc(N4CCCC4)n(C)n3)nn12` [Example 6, 3-Methyl-6-(2-(1-methyl-5-(pyrrolidin-1-yl)-1H-1,2,4-triazol-3-yl)ethyl)-2-(trifluoromethyl)imidazo[1,2-b]pyridazine], 19 nM.
With `Cc1c(C(F)F)nc2ccc(C#Cc3nc(N4CCCC4)nn3C)nn12` [Example 7, 2-(Difluoromethyl)-3-methyl-6-((1-methyl-3-(pyrrolidin-1-yl)-1H-1,2,4-triazol-5-yl)ethynyl)imidazo[1,2-b]pyridazine], the concentration for half-maximal inhibition (IC50) came out at 5 nM.
For `Cc1c(C(F)F)nc2ccc(CCc3nc(N4CCCC4)nn3C)nn12` [Example 8, 2-(Difluoromethyl)-3-methyl-6-(2-(1-methyl-3-(pyrrolidin-1-yl)-1H-1,2,4-triazol-5-yl)ethyl)imidazo[1,2-b]pyridazine] the value was 8 nM; for `COc1cc(/C=C/c2nc(N3CCCC3)nn2C)nn2c(C)c(C(F)(F)F)nc12` [Example 9, (E)-8-methoxy-3-methyl-6-(2-(1-methyl-3-(pyrrolidin-1-yl)-1H-1,2,4-triazol-5-yl)vinyl)-2-(trifluoromethyl)imidazo[1,2-b]pyridazine], 1 nM; for `COc1cc(CCc2nc(N3CCCC3)nn2C)nn2c(C)c(C(F)(F)F)nc12` [Example 10, 8-Methoxy-3-methyl-6-(2-(1-methyl-3-(pyrrolidin-1-yl)-1H-1,2,4-triazol-5-yl)ethyl)-2-(trifluoromethyl)imidazo[1,2-b]pyridazine], 2 nM.
Turning to `Cc1nc2c(O)nc(CCc3nc(N4CCCC4)nn3C)nn2c1C` [Example 11, 6,7-Dimethyl-2-(2-(1-methyl-3-(pyrrolidin-1-yl)-1H-1,2,4-triazol-5-yl)ethyl)imidazo[1,2-f][1,2,4]triazin-4-ol], the IC50 is 225 nM.
For `COc1cc(CCc2nc(N3CCCC3)nn2C)nn2c(C)c(C)nc12` [Example 12, 8-Methoxy-2,3-dimethyl-6-(2-(1-methyl-3-(pyrrolidin-1-yl)-1H-1,2,4-triazol-5-yl)ethyl)imidazo[1,2-b]pyridazine] the value was 3 nM; for `COc1nc(CCc2nc(N3CCCC3)nn2C)nn2c(C)c(C)nc12` [Example 13, 4-Methoxy-6,7-dimethyl-2-(2-(1-methyl-3-(pyrrolidin-1-yl)-1H-1,2,4-triazol-5-yl)ethyl)imidazo[1,2-f][1,2,4]triazine], 2 nM; for `Cn1nc(N2CCCC2)nc1CCc1ccc2nc3c(n2n1)CCC3` [Example 14, 5-[2-(2-Methyl-5-pyrrolidin-1-yl-2H-[1,2,4]triazol-3-yl)-ethyl]-2,3-dihydro-1H-3b,4,8-triaza-cyclopenta[a]indene], 41 nM.
In the case of `Cc1nc2c(Cl)nc(CCc3nc(N4CCCC4)nn3C)nn2c1C` [Example 15, 4-Chloro-6,7-dimethyl-2-(2-(1-methyl-3-(pyrrolidin-1-yl)-1H-1,2,4-triazol-5-yl)ethyl)imidazo[1,2-f][1,2,4]triazine], the 50% inhibitory concentration (IC50) came to 4 nM.
For `Cc1nc2c(C)cc(CCc3nc(N4CCCC4)nn3C)nn2c1C` [Example 16, 2,3,8-trimethyl-6-(2-(1-methyl-3-(pyrrolidin-1-yl)-1H-1,2,4-triazol-5-yl)ethyl)-imidazo[1,2-b]pyridazine] the value was 2 nM; for `Cc1cc2nc(C)c(C)n2nc1C#Cc1nc(N2CCCC2)nn1C` [Example 17, 2,3,7-Trimethyl-6-((1-methyl-3-(pyrrolidin-1-yl)-1H-1,2,4-triazol-5-yl)ethynyl)imidazo[1,2-b]pyridazine], 1 nM; for `Cc1cc2nc(C)c(C)n2nc1CCc1nc(N2CCCC2)nn1C` [Example 18, 2,3,7-Trimethyl-6-(2-(1-methyl-3-(pyrrolidin-1-yl)-1H-1,2,4-triazol-5-yl)ethyl)imidazo[1,2-b]pyridazine], 195 nM.
For `Cc1nc2c(N3CCCC3)cc(CCc3nc(N4CCCC4)nn3C)nn2c1C` [Example 19, 2,3-Dimethyl-6-(2-(1-methyl-3-(pyrrolidin-1-yl)-1H-1,2,4-triazol-5-yl)ethyl)-8-(pyrro-lidin-1-yl)imidazo[1,2-b]pyridazine] the value was 5 nM.
For `Cc1nc2c(Cl)nc(CCc3nc(N4CCCC4)n(C)n3)nn2c1C` [Example 20, 4-Chloro-6,7-dimethyl-2-(2-(1-methyl-5-(pyrrolidin-1-yl)-1H-1,2,4-triazol-3-yl)ethyl)-imidazo[1,2-f][1,2,4]triazine] the value was 11 nM; for `Cc1nc2ccc(CCc3nc(N4CCCC4)nn3C)nn2c1CO` [Example 21, (2-Methyl-6-(2-(1-methyl-3-(pyrrolidin-1-yl)-1H-1,2,4-triazol-5-yl)ethyl)imidazo[1,2-b]-pyridazin-3-yl)methanol], 194 nM.
On to `Cc1nc2c(N(C)C)nc(CCc3nc(N4CCCC4)nn3C)nn2c1C` [Example 22, N,N,6,7-Tetramethyl-2-(2-(1-methyl-3-(pyrrolidin-1-yl)-1H-1,2,4-triazol-5-yl)ethyl)-imidazo[1,2-f][1,2,4]triazin-4-amine], for which the IC50 amounted to 2 nM.
For `Cc1c(C(F)(F)F)nc2ccc(OCc3nc(N4CCCC4)nn3C)nn12` [Example 23, 3-Methyl-6-((1-methyl-3-(pyrrolidin-1-yl)-1H-1,2,4-triazol-5-yl)methoxy)-2-(trifluoro-methyl)imidazo[1,2-b]pyridazine] the value was 290 nM; for `Cc1nc2c3c(c(CCc4nc(N5CCCC5)nn4C)nn2c1C)CCCC3` [Example 24, 2,3-Dimethyl-6-(2-(1-methyl-3-(pyrrolidin-1-yl)-1H-1,2,4-triazol-5-yl)ethyl)-7,8,9,10-tetrahydroimidazo[2,1-a]phthalazine], 6 nM.
For the compound `Cc1nc2c(OC(C)C)cc(C#Cc3nc(N4CCCC4)nn3C)nn2c1C` [Example 25, 8-Isopropoxy-2,3-dimethyl-6-((1-methyl-3-(pyrrolidin-1-yl)-1H-1,2,4-triazol-5-yl)ethynyl)imidazo[1,2-b]pyridazine], the IC50 was determined as 1 nM.
For the compound `Cc1nc2c(OC(C)C)cc(/C=C/c3nc(N4CCCC4)nn3C)nn2c1C` [Example 26, (E)-8-Isopropoxy-2,3-dimethyl-6-(2-(1-methyl-3-(pyrrolidin-1-yl)-1H-1,2,4-triazol-5-yl)vinyl)imidazo[1,2-b]pyridazine], the IC50 is 0.493 nM.
Turning to `Cc1nc2c(OC(C)C)cc(CCc3nc(N4CCCC4)nn3C)nn2c1C` [Example 27, 8-Isopropoxy-2,3-dimethyl-6-(2-(1-methyl-3-(pyrrolidin-1-yl)-1H-1,2,4-triazol-5-yl)ethyl)imidazo[1,2-b]pyridazine], the IC50 came out at 3 nM.
For `Cc1nc2ccc(SCc3nc(N4CCCC4)nn3C)nn2c1C` [Example 28, 2,3-Dimethyl-6-((1-methyl-3-(pyrrolidin-1-yl)-1H-1,2,4-triazol-5-yl)methylthio)-imidazo[1,2-b]pyridazine] the value was 568 nM; for `Cc1nc2c(S(C)(=O)=O)cc(C#Cc3nc(N4CCCC4)nn3C)nn2c1C` [Example 29, 2,3-Dimethyl-6-((1-methyl-3-(pyrrolidin-1-yl)-1H-1,2,4-triazol-5-yl)ethynyl)-8-(methylsulfonyl)imidazo[1,2-b]pyridazine], 5 nM; for `Cc1nc2ccc(OCc3nc(N4CCCC4)nn3C)nn2c1C` [Example 30, 2,3-Dimethyl-6-((1-methyl-3-(pyrrolidin-1-yl)-1H-1,2,4-triazol-5-yl)methoxy)imidazo[1,2-b]pyridazine], 98 nM.
Turning to `Cc1nc2c(NC(C)C)nc(CCc3nc(N4CCCC4)nn3C)nn2c1C` [Example 31, N-Isopropyl-6,7-dimethyl-2-(2-(1-methyl-3-(pyrrolidin-1-yl)-1H-1,2,4-triazol-5-yl)ethyl)imidazo[1,2-f][1,2,4]triazin-4-amine], the IC50 is 3 nM.
